Two compounds from PMC8773328, “Antioxidative and Analgesic Effects of Naringin through Selective Inhibition of Transient Receptor Potential Vanilloid Member 1” (Antioxidants, 2021) can be followed below.

Each structure is given as a SMILES string.

Holding throughout (type): cell-based
The target of assay [1] is T1, Transient receptor potential vanilloid member 1 (TRPV1) (Rattus norvegicus, UniProt O35433).
T1 construct: Rat TRPV1 cDNA (NM_031982)
The experiment in a line: two-electrode voltage clamp in Xenopus oocytes expressing TRPV1, inhibition of current (reference antagonist).

Assay [2] has as its target T1, Transient receptor potential vanilloid member 1 (TRPV1). Description: two-electrode voltage clamp in Xenopus oocytes expressing TRPV1, inhibition of capsaicin-induced current. (In two-electrode clamp one electrode senses voltage and the other passes current.)
Assay [3] addresses T2, Transient receptor potential vanilloid member 1 (TRPV1) (Rattus norvegicus, UniProt O35433, N628A).
T2 construct: Rat TRPV1 cDNA (NM_031982), N628A
The experiment in a line: two-electrode voltage clamp in Xenopus oocytes expressing mutant TRPV1, inhibition of capsaicin-induced current (reduced maximum inhibition). The conditions noted are these: read-out: Hill Equation / y = Vmin + (Vmax - Vmin) × x^n/(k^n x^n) / Value.

T1 sequence (O35433 whole entry): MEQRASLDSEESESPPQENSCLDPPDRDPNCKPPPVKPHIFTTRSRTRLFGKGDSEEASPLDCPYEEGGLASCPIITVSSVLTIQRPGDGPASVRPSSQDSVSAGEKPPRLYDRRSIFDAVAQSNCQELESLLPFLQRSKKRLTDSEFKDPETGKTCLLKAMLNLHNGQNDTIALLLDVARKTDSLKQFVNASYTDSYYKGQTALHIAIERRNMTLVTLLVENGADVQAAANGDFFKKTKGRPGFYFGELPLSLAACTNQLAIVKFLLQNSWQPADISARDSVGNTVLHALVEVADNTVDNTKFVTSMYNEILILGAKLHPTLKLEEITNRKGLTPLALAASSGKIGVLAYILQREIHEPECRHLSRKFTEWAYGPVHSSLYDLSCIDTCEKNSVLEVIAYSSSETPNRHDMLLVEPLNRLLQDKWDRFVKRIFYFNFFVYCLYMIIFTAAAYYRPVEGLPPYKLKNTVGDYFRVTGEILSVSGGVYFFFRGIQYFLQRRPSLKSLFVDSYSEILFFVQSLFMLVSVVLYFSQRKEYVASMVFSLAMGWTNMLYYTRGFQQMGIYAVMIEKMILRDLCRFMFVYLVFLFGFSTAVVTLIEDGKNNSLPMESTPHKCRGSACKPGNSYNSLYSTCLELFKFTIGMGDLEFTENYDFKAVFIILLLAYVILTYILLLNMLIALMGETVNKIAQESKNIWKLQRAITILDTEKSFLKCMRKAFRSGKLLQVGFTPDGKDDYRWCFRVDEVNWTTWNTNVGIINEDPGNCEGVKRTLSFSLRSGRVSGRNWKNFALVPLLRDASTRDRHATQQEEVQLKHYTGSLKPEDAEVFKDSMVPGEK
T2 sequence (O35433 whole entry N628A): as the sequence (O35433 whole entry) above, with N628A counted along it

In assay [1], `Oc1cc2c(cc1O)CN(C(=S)NCCc1ccc(Cl)cc1)CCC2` [capsazepine] had an IC50 of 10.1 µM.
On to `C[C@@H]1O[C@@H](O[C@H]2[C@H](Oc3cc(O)c4c(c3)O[C@H](c3ccc(O)cc3)CC4=O)O[C@H](CO)[C@@H](O)[C@@H]2O)[C@H](O)[C@H](O)[C@H]1O` [naringin], for which the IC50 is 33.3 µM in assay [2] and 24.2 µM in assay [3].
